From patent US20250101338A1, “BIOMASS DERIVED SURFACE-ACTIVE COMPOSITIONS AND PRODUCTS” (Cambridge Glycoscience Ltd, priority 2021, published 2025)

Legend:
[1] = Dynamic foam tests (Example 69); assay type: physicochemical; conditions: 5 mL of 0.5 wt % aqueous solution, 40 cm^3 air bubbled at 17 cm^3/min
Description: The intensity and approximate decay-rate for the foaming behavior of the surface-active compositions in dilute aqueous solution was determined by dosing 5 mL of 0.5 wt % aqueous solution of surface-active composition to a vertically-aligned 50 m plastic serological pipette (“Stripette”). Air (40 cm^3) was bubbled through the surface-active composition solution at a rate of 17 cm^3/min via a syringe pump and the foam height upon complete addition of air recorded. The foam height was also recorded again 5 min after complete addition of air, 10 min after complete addition of air, 15 m after complete addition of air, 30 min after complete addition of air, 1 hour after complete addition of air and finally 2 hours after complete addition of air.

[2] = Lipophilic substances solubilization test, lemongrass oil (Example 71); assay type: physicochemical; conditions: 2 mL of 5 wt % aqueous solution, stepwise addition of 2.5 μL, duplicate
Description: After each addition, the sample was agitated with a vortex mixture for 60 s and left to stand for 5 min. If no heterogenous phase was observed visually, the oil was said to be fully soluble. If a heterogenous, immiscible biphasic or emulsion was visible, then the saturation limit for that surface-active component was said to have been exceeded. Each surface-active composition was tested in duplicate.

Volume of foam after given time ([1]; 0 min): 36.0 cm^3
Volume of foam after given time ([1]; 5 min): 2.0 cm^3
Volume of foam after given time ([1]; 15 min): 2.0 cm^3
Volume of foam after given time ([1]; 30 min): 2.0 cm^3
Volume of foam after given time ([1]; 1 h): 2.0 cm^3
Volume of foam after given time ([1]; 2 h): 2.0 cm^3
Maximum volume of lemongrass oil solubilized [2]: 8.75 µL
SMILES: CCCCCCCCCCN(C(C)=O)C1OC[C@@H](O)[C@H](O)[C@H]1O (stereo partly shown) [Example 11 composition, N-decyl N-acetyl xylosylamine]
